Assay results from patent US9079863B2, “Crystalline forms for 5-amino-2,3-dihydrophthalazine-1,4-dione sodium salt, pharmaceutical preparations containing the same and method for the production of said forms” (METRIOPHARM AG, priority 2010, dated 2015).
Structures can show the parent of a compound that is named as a salt. Where two headings read alike, the source gives them in different places.

Legend:
S. pyogenes [1] = details: 48 hours after the infection
Protocol: (§1) In a mouse model of the Gram-positive sepsis (infection with S. pyogenes) the therapeutic usability of the crystal forms I and II of the 5-amino-2,3-dihydrophthalazine-1,4-dione sodium salt was tested. The administration of active ingredient was made parenterally 6 hours after the infection occurred. A second administration of active ingredient was made 24 hours after the first application. The test was completed 48 hours after the infection. For both forms (substance groups) three different doses were used. The mice obtained 2, 20 or 200 μg each of form I or form II per animal and application.

[2] = tested on: stimulated murine macrophages; details: 1 μg/mL LPS with 100 μg/mL
Protocol: These were measured in the combination of 2 μg/mL active ingredient with macrophages stimulated with 100 ng/mL LPS as well as in the group of the macrophages stimulated with 10 ng/mL in the active ingredient concentration with 20 μg/mL.

S. pyogenes [3] = details: for Germ load (CFU) Blood MW / Germ load (CFU) Liver MW: 48 hours after the infection, sodium salt
Protocol: as §1
(§2) The individual treatment groups comprised 5 animals each, and for the not infected controls two repetitions and for the infected controls and that groups that contained form II four repetitions were made, so that in total 180 animals were in the test.
In the sepsis model described in Example 3, the influence of crystal forms II and I of the 5-amino-2,3-dihydrophthalazine-1,4-dione sodium salt on the germ load of the mice infected with S. pyogenes in blood and liver was tested. The test was completed 48 hours after the infection, and the germ load (CFU) existing at this time in blood and liver was determined (see Table).

[4] = not infected mice; for Weight development/increase MW: over two days
Protocol: as §1, §2
It is known that the toxicity of substances in an animal test with growing-up mice or rate can influence the weight development.

[5] = tested on: isolated mouse bone marrow macrophages
Protocol: For this purpose, isolated mouse bone marrow macrophages were first treated with form II in concentrations of 2, 20 or 200 μg/mL and stimulated 1 h after treatment with 100 ng/mL or 10 ng/mL LPS. The supernatants were collected 24 h later, and the concentration of TNF-alpha and IL-6 was measured. Not stimulated macrophages, not stimulated macrophages treated with 200 μg/mL form II and LPS-stimulated macrophages (10 or 100 ng/mL LPS) were used as controls.

[6] = healthy mice, end of the second application day
From the text: When administering form I and form II to healthy mice, it was investigated, whether and which influence the application has on certain liver enzymes, in particular the transaminases GOT (AST) and GPT (ALT). Blood taking occurred at the end of the second application day.

S. pyogenes [7] = details: infected mice, sodium salt; for Weight development/increase Total MW: complete test time 48 h, survivors
Protocol: as §1, §2
In the sepsis model described in Example 3, the influence of crystal forms I and II of the 5-amino-2,3-dihydrophthalazine-1,4-dione sodium salt on the weight development of mice infected with S. pyogenes was tested. The development of the body weight during an acute infection may supply important predictive information.

physchem = details: saturated solution
Protocol: Further, the solubility of the crystalline forms in a saturated solution was determined.

[8] = healthy mice
Protocol: as §1
Blood taking occurred after 48 hours at the end of the second application day.

[9] = for Disintegration temperature: 30-500° C. in synthetic air (4 N2: 1 O2), sodium salt
Protocol: (Table 5). The solid phase transformation of the dihydrate according to U.S. Pat. No. 6,483,326 B1 was measured by means of the simultaneous thermogravimetry-differential thermal analysis with a Linseis L81-077 coupled with mass spectroscopy measurement with a Netzsch STA 449 C thermobalance, with MS and FTIR coupling at 30-300° C. under helium. The disintegration temperatures of forms I-II were determined with the same device at 30-500° C. in synthetic air (4 N2: 1 O2). The data were analyzed with the factory-set software Proteus.

[10] = 0.25 g in 10 mL H2O VE, stirring 500 rpm, 25° C., first minutes after addition; sodium salt
Protocol: The complete dissolution of 0.25 g form I or form II, respectively, in 10 mL H2O VE was achieved under stirring (500 rpm) at 25° C.

S. pyogenes [11] = details: 48 hours after the infection; remark: listed apart in the source
Protocol: as §1, §2
In the sepsis model described in Example 3, the influence the crystal forms II and I of the 5-amino-2,3-dihydrophthalazine-1,4-dione sodium, salt on the probability of survival of the mice infected with S. pyogenes was tested.

[12] = dose 2 μg, LPS 10 ng/mL, supernatant 24 h
[13] = dose 2 μg, LPS 100 ng/mL, supernatant 24 h
[14] = dose 20 μg, LPS 10 ng/mL, supernatant 24 h
[15] = dose 20 μg, LPS 100 ng/mL, supernatant 24 h
[16] = dose 200 μg, LPS 10 ng/mL, supernatant 24 h
[17] = dose 200 μg, LPS 100 ng/mL, supernatant 24 h
[18] = dose 200 μg, not stimulated (no LPS)

With `Nc1cccc2c(=O)[nH][nH]c(=O)c12` [Form II, 5-amino-2,3-dihydrophthalazine-1,4-dione sodium salt] the “IL-6 in infected mice” value (S. pyogenes [1]; not confirmed in all repetitions) was “in part distinct tendencies of an IL-6 reduction”, the “Liver enzyme values GOT (AST) and GPT (ALT)” value (S. pyogenes [1]; infected mice, some repetitions only) was “tendencies to reduce the liver enzyme values” and the “Effect on IL-6 values” [2] was “immunodepressive effect”. The “Germ load (CFU) Blood MW” value (S. pyogenes [3]; 2 μg) was 5.96 log/mL, the “Germ load (CFU) Liver MW” value (S. pyogenes [3]; 2 μg) was 6.13 log/g and the “Germ load (CFU) Blood MW” value (S. pyogenes [3]; 20 μg) was 5.88 log/mL. The “Germ load (CFU) Liver MW” value (S. pyogenes [3]; 20 μg) was 6.79 log/g, the “Germ load (CFU) Blood MW” value (S. pyogenes [3]; 200 μg) was 5.54 log/mL and the “Germ load (CFU) Liver MW” value (S. pyogenes [3]; 200 μg) was 6.14 log/g. For the same compound, the “Germ load (CFU) Blood MW” value (S. pyogenes [3]; all doses (total)) was 5.80 log/mL, the “Germ load (CFU) Liver MW” value (S. pyogenes [3]; all doses (total)) was 6.36 log/g and the “Germ count in the blood compared to the controls” value (S. pyogenes [3]; highest dose) was “tendentious germ count reduction”. For the same compound, the “Toxicity judged from weight development” value [4] was “do not have any toxicity or at most a very small one”, the “Weight development/increase MW” value ([4]; 2 μg per animal and application, parenteral, sodium salt) was -0.14 g and the “Weight development/increase MW” value ([4]; 20 μg per animal and application, parenteral, sodium salt) was 1.43 g. The “Weight development/increase MW” value ([4]; 200 μg per animal and application, parenteral, sodium salt) was 0.50 g, the “Weight development/increase MW” value ([4]; all doses (total)) was 0.59 g and the “Change of TNF-alpha” value ([5]; 10 ng/mL LPS, 200 μg/mL) was “significant reduction”. For the same compound, the “Change of TNF-alpha concentration” value ([5]; 100 ng/mL LPS, all active ingredient concentrations) was “significant reduction”, the “Change of IL-6 values” ([5]; 2 μg/mL with 100 ng/mL LPS) was “significant reductions” and the “Change of IL-6 values” ([5]; 20 μg/mL with 10 ng/mL LPS) was “significant reductions”. The “IL-6 MW” value [5, 12] was 3.93 ng/mL, the “TNF-alpha MW” value [5, 12] was 8.38 ng/mL and the “IL-6 MW” value [5, 13] was 2.67 ng/mL. The “TNF-alpha MW” value [5, 13] was 7.40 ng/mL, the “IL-6 MW” value [5, 14] was 1.61 ng/mL and the “TNF-alpha MW” value [5, 14] was 9.80 ng/mL. The “IL-6 MW” value [5, 15] was 4.28 ng/mL, the “TNF-alpha MW” value [5, 15] was 9.06 ng/mL and the “IL-6 MW” value [5, 16] was 3.42 ng/mL. The “TNF-alpha MW” value [5, 16] was 6.76 ng/mL, the “IL-6 MW” value [5, 17] was 4.00 ng/mL and the “TNF-alpha MW” value [5, 17] was 7.69 ng/mL. The “IL-6 MW” value [5, 18] was 0.00 ng/mL, the “TNF-alpha MW” value [5, 18] was 0.00 ng/mL and the “Immunostimulating effect on not LPS-induced macrophages” value ([5]; not LPS-induced) was “could not be shown”. The “Transaminases GOT (AST) and GPT (ALT)” value [6] was “Distinct differences between the groups could not be found”, the “Weight development/increase Total MW” value (S. pyogenes [7]; 2 μg) was -2.02 g and the “Weight development/increase Day 1 MW” value (S. pyogenes [7]; 2 μg) was -0.57 g. For the same compound, the “Weight development/increase Total MW” value (S. pyogenes [7]; 20 μg) was -1.69 g, the “Weight development/increase Day 1 MW” value (S. pyogenes [7]; 20 μg) was -0.55 g and the “Weight development/increase Total MW” value (S. pyogenes [7]; 200 μg) was -1.86 g. For the same compound, the “Weight development/increase Day 1 MW” value (S. pyogenes [7]; 200 μg) was -0.72 g, the “Weight development/increase Total MW” value (S. pyogenes [7]; all doses (total)) was -1.86 g and the “Weight development/increase Day 1 MW” value (S. pyogenes [7]; all doses (total)) was -0.62 g. For the same compound, the Solubility (physchem; in water at room temperature, sodium salt) was 252 mg/mL, the “Solubility in comparison” value (physchem) was “more soluble than form I” and the “TNF-alpha MW” value ([8]; 2 μg, blood after 48 hours, sodium salt) was 0.0 pg/mL. For the same compound, the “TNF-alpha MW” value ([8]; 20 μg, blood after 48 hours, sodium salt) was 0.0 pg/mL, the “TNF-alpha MW” value ([8]; 200 μg, blood after 48 hours, sodium salt) was 16.94 pg/mL and the “TNF-alpha MW” value ([8]; all doses (total), blood after 48 hours, sodium salt) was 5.65 pg/mL. For the same compound, the “IL-6 increase” value ([8]; blood after 48 hours) was “neither in the substance groups nor in the control groups increases could be found”, the “TNF-alpha increase” value ([8]; compared to the other groups, sodium salt) was “do not cause a relevant increase” and the Disintegration temperature ([9]; listed as form II) was 385 °C. The Disintegration temperature [9] was 385 °C ± 10 °C, the “Time for which the crystalline form is stable” value ([9]; room temperature (25° C.) and 40° C.) was “at least two” and the “Initial dissolution rate” value [10] was “higher than that of form I”. For the same compound, the “Share of surviving mice” value (S. pyogenes [11]; 2 μg, sodium salt) was 90%, the “Share of surviving mice” value (S. pyogenes [11]; 20 μg) was 80% and the “Share of surviving mice” value (S. pyogenes [11]; 200 μg, sodium salt) was 70%. For the same compound, the “Survival compared to the controls” value (S. pyogenes [11]) was “increase of the share of surviving animals” and the “Share of surviving mice” value (S. pyogenes [11]; all doses (total)) was 80%.
